Like-named read-outs stand apart in the source and are kept apart here.
Key:
HTT mRNA = assay: Splicing RT-qPCR assay, HTT canonical (CJ) and alternative (AJ) junction mRNA; assay type: cell-based, human; details: for IC50: canonical junction mRNA; for AC50: alternative junction mRNA, read-out: HTT AJ (AC50, increase in AJ mRNA)
Procedure, shortened: (§1)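 Cmpd 24 h, 37 °C/5% CO2; 11-pt 3x serial dilution from 10 uM final; DMSO max 0.25%. Cells: A673 (DMEM/10% FBS, pre-adhered 24 h) or K562 (IMDM/10% FBS). Lyse, DNase I, then 1-step RT-qPCR for CJ and AJ; housekeeping-normalized.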

MYB mRNA = assay: Splicing RT-qPCR assay, MYB canonical (CJ) and alternative (AJ) junction mRNA; assay type: cell-based, human; details: for IC50: canonical junction mRNA; for AC50: alternative junction mRNA, read-out: MYB AJ (AC50, increase in AJ mRNA)
Procedure, shortened: as §1

K562 cells = assay: Cell viability, Cell Titer Glo 2.0 assay, K562; details: 72 hours
[1] = Homo sapiens, 24 h, RT-qPCR, A673 or K562 cells, 24 hours treatment, read-out: HTT CJ (IC50, decrease in CJ mRNA)
[2] = Homo sapiens, qPCR panel, read-out: HTT CJ (decrease in CJ mRNA levels, IC50)
[3] = Homo sapiens, RT-qPCR, A673 or K562 cells, 24 hours treatment
[4] = Homo sapiens, qPCR panel, read-out: MYB CJ (decrease in CJ mRNA levels, IC50)
[5] = Homo sapiens, RT-qPCR, A673 or K562 cells, 24 hours treatment, read-out: MYB CJ (IC50, decrease in CJ mRNA)
[6] = RT-qPCR, A673 or K562 cells, 24 hours treatment

IC50 (HTT mRNA; [1])	IC50 (HTT mRNA; [2])	IC50 (MYB mRNA; [4])	IC50 (MYB mRNA; [5])	IC50 (HTT mRNA; RT-qPCR, A673 or K562 cells, 24 hours treatment, read-out: HTT CJ (IC50, decrease in CJ mRNA))	IC50 (HTT mRNA; qPCR panel, read-out: HTT CJ (decrease in CJ mRNA levels, IC50))	IC50 (MYB mRNA; RT-qPCR, A673 or K562 cells, 24 hours treatment, read-out: MYB CJ (IC50, decrease in CJ mRNA))	IC50 (MYB mRNA; qPCR panel, read-out: MYB CJ (decrease in CJ mRNA levels, IC50))	SMILES	AC50 (HTT mRNA; [3])	AC50 (MYB mRNA; [3])	Effect on Cell Viability, K562 (K562 cells)	AC50 (HTT mRNA; [6])	AC50 (MYB mRNA; [6])
< 100 nM	< 100 nM	< 100 nM	< 100 nM					CN(C)[C@H]1CCN(c2cnc3nc(-c4cc5cn(C)nc5c(F)c4O)cc(Cl)c3c2)C1 [Compound 221]	100 to 1000 nM	< 100 nM	A (<100 nM)		
< 100 nM	< 100 nM	< 100 nM	< 100 nM					Cc1nc2c(C)c(O)c(-c3cnc4cc(N5CCC(NC6CC6)C5)ccc4n3)cc2o1 (centres unmarked) [Compound 182, 6-[6-[3-(cyclopropylamino)pyrrolidin-1-yl]quinoxalin-2-yl]-2,4-dimethyl-1,3-benzoxazol-5-ol]	< 100 nM	< 100 nM	A (<100 nM)		
< 100 nM	< 100 nM	< 100 nM	< 100 nM					Cn1cc2cc(-c3cnc4cc(N5CC[C@@H](NC6CC6)C5)ccc4n3)c(O)c(F)c2n1 [Compound 177, 5-[6-[(3R)-3-(cyclopropylamino)318quinoxaline-1-yl]318quinoxaline-2-yl]-7-fluoro-2-methyl-indazol-6-ol]	< 100 nM	< 100 nM	A (<100 nM)		
1000 to 10000 nM	1000 to 10000 nM	100 to 1000 nM	100 to 1000 nM					Cn1cc2cc(-c3cc(Cl)c4cc(N5CCNC(C6CC6)C5)cnc4n3)cc(F)c2n1 (centres unmarked) [Compound 209, 4-chloro-6-(3-cyclopropylpiperazin-1-yl)-2-(7-fluoro-2-methylindazol-5-yl)-1,8-naphthyridine]	1000 to 10000 nM	100 to 1000 nM	B (100-1000 nM)		
< 100 nM	< 100 nM	< 100 nM	< 100 nM					Cc1c(O)c(-c2ncc3cc(N4CC[C@@H](N)C4)cnc3n2)cc2cn(C)nc12 [Compound 159, (R)-5-(6-(3-aminopyrrolidin-1-yl)pyrido[2,3-d]pyrimidin-2-yl)-2,7-dimethyl-2H-indazol-6-ol 2,2,2-trifluoroacetate]	100 to 1000 nM	< 100 nM	B (100-1000 nM)		
1000 to 10000 nM	1000 to 10000 nM	100 to 1000 nM	100 to 1000 nM					Cn1cc2cc(-c3cc(Cl)c4cc(N5CCN6CCCC6C5)cnc4n3)cc(F)c2n1 (centres unmarked) [Compound 216, 4-chloro-2-(7-fluoro-2-methylindazol-5-yl)-6-{hexahydro-1H-pyrrolo[1,2-a]pyrazin-2-yl}-1,8-naphthyridine trifluoroacetic acid]	1000 to 10000 nM	100 to 1000 nM	B (100-1000 nM)		
100 to 1000 nM	100 to 1000 nM	< 100 nM	< 100 nM					CN[C@@H]1CCN(c2cnc3nc(-c4cc(F)c5nc(C)cn5c4)ncc3c2)C1 [Compound 202, (3R)-1-(2-{8-fluoro-2-methylimidazo[1,2-a]pyridin-6-yl}pyrido[2,3-d]pyrimidin-6-yl)-N-methylpyrrolidin-3-amine]	100 to 1000 nM	100 to 1000 nM	B (100-1000 nM)		
< 100 nM	< 100 nM	< 100 nM	< 100 nM					CN[C@@H]1CCN(c2cnc3nc(-c4cc5cn(C)nc5c(C)c4O)nc(OC)c3c2)C1 [Compound 211, 5-{4-methoxy-6-[(3R)-3-(methylamino)pyrrolidin-1-yl]pyrido[2,3-d]pyrimidin-2-yl}-2,7-dimethylindazol-6-ol]	< 100 nM	< 100 nM	A (<100 nM)		
1000 to 10000 nM	1000 to 10000 nM	100 to 1000 nM	100 to 1000 nM					Cc1c(O)c(-c2cc(Cl)c3cc(N(C)C4CCNC4)cnc3n2)cc2cn(C)nc12 (centres unmarked) [Compound 204, 5-[4-chloro-6-(367pyrrolidine-3-ylamino)-1,8-naphthyridin-2-yl]-2,7-dimethylindazol-6-ol]	1000 to 10000 nM	100 to 1000 nM	B (100-1000 nM)		
< 100 nM	< 100 nM	< 100 nM	< 100 nM					CN[C@H]1CCN(c2cnc3nc(-c4cc5cn(C)nc5c(C)c4O)nc(OC)c3c2)C1 [Compound 212, 5-{4-methoxy-6-[(3S)-3-(methylamino)pyrrolidin-1-yl]pyrido[2,3-d]pyrimidin-2-yl}-2,7-dimethylindazol-6-ol]	100 to 1000 nM	< 100 nM	A (<100 nM)		
1000 to 10000 nM	1000 to 10000 nM	100 to 1000 nM	100 to 1000 nM					C[C@@H]1CN(c2cnc3nc(-c4cc(F)c5nn(C)cc5c4)cc(Cl)c3c2)C[C@H](C)N1 [Compound 215]	1000 to 10000 nM	100 to 1000 nM	B (100-1000 nM)		

Continued, compound first:

SMILES	IC50 (HTT mRNA; [1])	IC50 (HTT mRNA; [2])	IC50 (MYB mRNA; [4])	IC50 (MYB mRNA; [5])	IC50 (HTT mRNA; RT-qPCR, A673 or K562 cells, 24 hours treatment, read-out: HTT CJ (IC50, decrease in CJ mRNA))	IC50 (HTT mRNA; qPCR panel, read-out: HTT CJ (decrease in CJ mRNA levels, IC50))	IC50 (MYB mRNA; RT-qPCR, A673 or K562 cells, 24 hours treatment, read-out: MYB CJ (IC50, decrease in CJ mRNA))	IC50 (MYB mRNA; qPCR panel, read-out: MYB CJ (decrease in CJ mRNA levels, IC50))	AC50 (HTT mRNA; [3])	AC50 (MYB mRNA; [3])	Effect on Cell Viability, K562 (K562 cells)	AC50 (HTT mRNA; [6])	AC50 (MYB mRNA; [6])
Cc1c(O)c(-c2cc(-c3ccccn3)c3cc(N4C[C@@H](C)N[C@@H](C)C4)cnc3n2)cc2cn(C)nc12 [Compound 217, 5-{6-[(3R,5S)-3,5-dimethylpiperazin-1-yl]-4-(pyridin-2-yl)-1,8-naphthyridin-2-yl}-2,7-dimethylindazol-6-ol]	> 10000 nM	> 10000 nM	> 10000 nM	> 10000 nM					> 10000 nM	> 10000 nM	C (1000-9999 nM)		
Cn1cc2cc(-c3cc(Cl)c4cc(N5CCNCC5)cnc4n3)c(O)cc2n1 [Compound 102, 5-[4-chloro-6-(piperazin-1-yl)-1,8-naphthyridin-2-yl]-2-methylindazol-6-ol]	100 to 1000 nM	100 to 1000 nM	< 100 nM	< 100 nM					100 to 1000 nM	< 100 nM	B (100-1000 nM)		
Cc1c(O)c(-c2cc(Cl)c3cc(N4C[C@@H](C)N[C@@H](C)C4)cnc3n2)cc2cn(C)nc12 [Compound 207, 5-{4-chloro-6-[(3R,5S)-3,5-dimethylpiperazin-1-yl]-1,8-naphthyridin-2-yl}-2,7-dimethylindazol-6-ol]					< 100 nM	< 100 nM	< 100 nM	< 100 nM			A (<100 nM)	100 to 1000 nM	< 100 nM
C[C@H]1CN(c2cnc3nc(-c4cc(F)c5nn(C)cc5c4)cc(Cl)c3c2)C[C@H](C)N1 [Compound 250]	100 to 1000 nM	100 to 1000 nM	< 100 nM	< 100 nM					100 to 1000 nM	< 100 nM	A (<100 nM)		
Cn1cc2cc(-c3cnc4cc(N5CC[C@H](NC6CC6)C5)ccc4n3)c(O)c(F)c2n1 [Compound 176, 5-[6-[(3S)-3-(cyclopropylamino)318quinoxaline-1-yl]318quinoxaline-2-yl]-7-fluoro-2-methyl-indazol-6-ol]	< 100 nM	< 100 nM	< 100 nM	< 100 nM					< 100 nM	< 100 nM	A (<100 nM)		
Cc1cn2nc(-c3ccc4cc(NC5CCNCC5)cnc4n3)cc(C)c2n1 [Compound 210, 7-{2,8-dimethylimidazo[1,2-b]pyridazin-6-yl}-N-(piperidin-4-yl)-1,8-naphthyridin-3-amine; trifluoroacetic acid]	1000 to 10000 nM	1000 to 10000 nM	1000 to 10000 nM	1000 to 10000 nM					1000 to 10000 nM	1000 to 10000 nM	C (1000-9999 nM)		
C[C@@H]1CN(c2cnc3nc(-c4cc5cn(C)nc5c(F)c4O)ccc3c2)C[C@H](C)N1 [Compound 206]	< 100 nM	< 100 nM	< 100 nM	< 100 nM					100 to 1000 nM	< 100 nM	A (<100 nM)		
COc1nc(-c2cc3cn(C)nc3c(F)c2O)nc2ncc(N3C[C@@H](C)N[C@@H](C)C3)cc12 [Compound 218]	< 100 nM	< 100 nM	< 100 nM	< 100 nM					100 to 1000 nM	< 100 nM	A (<100 nM)		
Cc1cn2cc(-c3cnc4nc(C5CCNCC5)ccc4c3)cc(C)c2n1 [Compound 201]	> 10000 nM	< 100 nM	< 100 nM	> 10000 nM					> 10000 nM	> 10000 nM	C (1000-9999 nM)		

— patent US20250326748A1, “COMPOUNDS AND METHODS FOR MODULATING SPLICING” (REMIX THERAPEUTICS INC., priority 2022, published 2025)
